From US20060247260A1, “Bis (hetero) aryl carboxamide derivatives for use as PG12 antagonists” (BAYER HEALTHCARE AG, priority 2003, published 2006)

Legend:
PGI2 receptor = molecular target: T1, PGI2 receptor (Homo sapiens, UniProt P43119); test: PGI2 receptor binding/cAMP in HEL cells (in vitro activity grade); details: compounds of purity about 40 to 90%
T1 construct: host or cells: HEL 92.1.7 human erythroleukemia cells (whole cells)
Description: [Measurement of the [^3H]-Iloprost Binding to HEL Cells] (Assay 1) A human erythloleukemia cell line, HEL 92.1.7, was purchased from American Type Culture Correction and maintained in RPMI-1640 medium (Gibco BRL) supplemented with 10% fetal calf serum (FCS), 2 mM glutamine, 4.5 g/L glucose, 10 mM Hepes, 1 mM sodium pyruvate, 100 U/ml penicillin, and 100 μg/ml streptomycin in a humidified 5% CO2 atmosphere at 37° C. Cells were collected with centrifugation and washed with binding assay buffer (BAB: 50 mM Tris-HCl, 5 mM MgCl2 (pH 7.5)). Cells were suspended at the density of 6.25×10^6 cells/ml in BAB, and one million cells in 160 μl aliquot of cell suspension were put in a well of 96 well plate (Falcon). Then, 20 μl of compound solution, 100 μM of iloprost (for non-specific binding), or buffer alone (total binding), diluted with 1% DMSO in BAB was added. Finally, another 20 μl containing [^3H]-iloprost (0.02 μCi, 0.5-1 pmol) in BAB was added and incubated at room temperature for 30 min with a gentle shaking. Cell suspension was then transferred to a well of MultiScreen plate with GF/C glass filters (Millipore) to harvest cells. Cells were washed twice with 200 μl of ice-cold BAB and the plate was kept at 55° C. for 30 min to dry filters. The filter in the well was punched out to a counting tube and 2 ml of Ultima Gold XR Packard) was added. [^3H]-radio activity in the filter was measured by a liquid scintillation counter (Beckman, USA). [Iloprost-Induced cAMP Production Assay in HEL Cells] (Assay 2) HEL cells were collected with centrifugation and washed with cAMP assay buffer (CAB: Hank's balanced salt solution, 17 mM Hepes, 0.1% bovine serum albumin, 1 mM IBMX, 0.4% DMSO, and 1 mM L-ascorbic acid sodium salt (pH 7.4)). Cells were suspended at the density of 2.5×10^5 cells/ml in CAB, and twenty thousand cells in 80 μl aliquot of cell suspension were put in a well of 96 well plate (Falcon). Then, 10 μl of compound solution diluted with 1% DMSO in CAB or buffer alone was added. The plate was incubated at 37° C. for 30 min. Then, another 10 μl containing 100 nM iloprost in CAB or buffer alone was added and further incubated at 37° C. for 30 min. cAMP content in the well was measured by, a cAMP ELISA kit (Applied Biosystems, USA). The data corresponds to the compounds as yielded by solid phase synthesis and thus to levels of purity of about 40 to 90%. For practical reasons, the compounds are grouped in three classes of activity as follows: In vitro activity grade=A≦0.1 μM<B≦1 μM<C

T1 sequence (P43119 whole entry): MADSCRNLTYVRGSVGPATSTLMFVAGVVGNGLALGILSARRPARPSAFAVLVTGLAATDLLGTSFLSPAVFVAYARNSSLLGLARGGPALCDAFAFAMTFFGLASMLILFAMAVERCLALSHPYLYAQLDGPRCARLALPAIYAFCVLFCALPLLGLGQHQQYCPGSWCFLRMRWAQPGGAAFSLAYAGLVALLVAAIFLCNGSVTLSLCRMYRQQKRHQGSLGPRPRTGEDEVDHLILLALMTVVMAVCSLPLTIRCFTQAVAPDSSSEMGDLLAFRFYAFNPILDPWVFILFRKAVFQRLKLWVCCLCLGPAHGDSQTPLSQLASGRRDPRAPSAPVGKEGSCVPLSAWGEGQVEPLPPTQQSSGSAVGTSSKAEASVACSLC

SMILES	In vitro activity grade (PGI2 receptor)	melting point
O=C(NC(Cc1ccccc1)C(=O)O)c1ccc(-c2ccc(OCCc3ccccc3)cc2)cc1 (centres unmarked) [Example 8-35]	A (A≦0.1 μM)	
O=C(NC(Cc1ccccc1)C(=O)O)c1ccc(-c2ccc(OCc3ccccc3)cc2)s1 (centres unmarked) [Example 2-1, 2-{[5-(4-Benzyloxyphenyl)thiophene-2-carbonyl]amino}-3-phenyl-propionic acid]	A (A≦0.1 μM)	215 to 216 °C
O=C(NC(Cc1ccccc1)C(=O)O)c1ccc(-c2ccc(OCc3ccc(C(F)(F)F)cc3)cc2)cc1 (centres unmarked) [Example 8-21]	C (1 μM<C)	
O=C(NC(Cc1ccccc1)C(=O)O)c1ccc(-c2ccc(OCc3ccccc3)c(F)c2)cc1 (centres unmarked) [Example 7-1, 2-[(4′-Benzyloxy-3′-fluorobiphenyl-4-carbonyl)amino]-3-phenylpropionic acid]	A (A≦0.1 μM)	215 °C
O=C(NC(Cc1ccccc1)C(=O)O)c1ccc(-c2ccc(OCc3ccc(Cl)cc3Cl)cc2)cc1 (centres unmarked) [Example 8-9]	C (1 μM<C)	
O=C(NC(Cc1ccccc1)C(=O)O)c1ccc(-c2ccc(OCc3ccc(F)cc3F)cc2)cc1 (centres unmarked) [Example 8-18]	A (A≦0.1 μM)	
O=C(NC(Cc1ccccc1)C(=O)O)c1ccc(-c2ccc(OCC3CCCCC3)cc2)cc1 (centres unmarked) [Example 8-33]	B (0.1 μM<B≦1 μM)	
O=C(NC(Cc1ccccc1)C(=O)O)c1ccc(-c2ccc(OCc3ccccc3)cc2)nc1 (centres unmarked) [Example 4-1, 2-{[6-(4-benzyloxy-phenyl)-pyridine-3-carbonyl]-amino}-3-phenyl-propionic acid]	A (A≦0.1 μM)	
COc1cc(COc2ccc(-c3ccc(C(=O)NC(Cc4ccccc4)C(=O)O)cc3)cc2)cc(OC)c1 (centres unmarked) [Example 8-23]	A (A≦0.1 μM)	
O=C(NC(Cc1ccccc1)C(=O)O)c1ccc(-c2ccc(OCCCc3ccccc3)cc2)cc1 (centres unmarked) [Example 8-37]	B (0.1 μM<B≦1 μM)	
O=C(NC(Cc1ccccc1)C(=O)[O-])c1ccc(-c2ccc(OCc3ccccc3)nc2)cc1.[Na+] (centres unmarked) [Example 6-1, Sodium 2-[4-(6-benzyloxypyridin-3-yl)benzoylamino]-3-phenylpropionate]	A (A≦0.1 μM)	240 to 242 °C
CCCCOc1ccc(-c2ccc(C(=O)NC(Cc3ccccc3)C(=O)O)cc2)cc1 (centres unmarked) [Example 8-38]	B (0.1 μM<B≦1 μM)	
CC(Oc1ccc(-c2ccc(C(=O)NC(Cc3ccccc3)C(=O)O)cc2)cc1)c1ccccc1 (centres unmarked) [Example 8-36]	B (0.1 μM<B≦1 μM)	
O=C(NC(Cc1ccccc1)C(=O)O)c1ccc(-c2ccc(OCc3cc(Cl)cc(Cl)c3)cc2)cc1 (centres unmarked) [Example 8-8]	C (1 μM<C)	
O=C(NC(Cc1ccccc1)C(=O)O)c1ccc(-c2ccc(OCCN3CCCCC3)cc2)cc1 (centres unmarked) [Example 8-40]	C (1 μM<C)	
O=C(NC(Cc1ccccc1)C(=O)O)c1ccc(-c2ccc(OCCCn3cccc3)cc2)cc1 (centres unmarked) [Example 8-34]	B (0.1 μM<B≦1 μM)	
COc1cc(COc2ccc(-c3ccc(C(=O)NC(Cc4ccccc4)C(=O)O)cc3)cc2)cc(OC)c1OC (centres unmarked) [Example 8-16]	C (1 μM<C)	
O=C(NC(Cc1ccccc1)C(=O)O)c1ccc(-c2ccc(OCc3ccccc3OC(F)(F)F)cc2)cc1 (centres unmarked) [Example 8-29]	C (1 μM<C)	
O=C(NC(Cc1ccccc1)C(=O)O)c1ccc(-c2ccc(OCc3ccc(OC(F)(F)F)cc3)cc2)cc1 (centres unmarked) [Example 8-31]	C (1 μM<C)	
O=C(NC(Cc1ccccc1)C(=O)O)c1ccc(-c2ccc(OCc3ccc([N+](=O)[O-])cc3)cc2)cc1 (centres unmarked) [Example 8-2]	B (0.1 μM<B≦1 μM)	
O=C(NC(Cc1ccccc1)C(=O)O)c1cc(-c2ccc(OCc3ccccc3)cc2)on1 (centres unmarked) [Example 1-2, 2-{[5-(4-Benzyloxyphenyl)isoxazole-3-carbonyl]amino}-3-phenyl-propionic acid]	A (A≦0.1 μM)	
O=C(NC(Cc1ccccc1)C(=O)O)c1ccc(-c2cnc(OCc3ccccc3)nc2)cc1 (centres unmarked) [Example 5-1, 2-[4-(2-Benzyloxypyrimidin-5-yl)benzoylamino]-3-phenylpropionic acid]	A (A≦0.1 μM)	

More lines, now with the values ahead:

In vitro activity grade (PGI2 receptor)	melting point	SMILES
A (A≦0.1 μM)		O=C(NC(Cc1ccccc1)C(=O)O)c1ccc(-c2ccc(OCc3cccc(F)c3)cc2)cc1 (centres unmarked) [Example 8-4]
B (0.1 μM<B≦1 μM)		Cc1ccc(COc2ccc(-c3ccc(C(=O)NC(Cc4ccccc4)C(=O)O)cc3)cc2)c(C)c1 (centres unmarked) [Example 8-27]
B (0.1 μM<B≦1 μM)		COc1ccc(COc2ccc(-c3ccc(C(=O)NC(Cc4ccccc4)C(=O)O)cc3)cc2)cc1 (centres unmarked) [Example 8-15]
A (A≦0.1 μM)		O=C(NC(Cc1ccccc1)C(=O)O)c1ccc(-c2ccc(OCc3ccccc3)cc2)cc1 (centres unmarked) [Example 3-1, 2-[(4′-Benzyloxy-biphenyl-4-carbonyl)-amino]-3-phenyl-propionic acid]
A (A≦0.1 μM)		Cc1cccc(COc2ccc(-c3ccc(C(=O)NC(Cc4ccccc4)C(=O)O)cc3)cc2)c1 (centres unmarked) [Example 8-1, 2-{[4′-(3-Methylbenzyloxy)biphenyl-4-carbonyl]amino}-3-phenylpropionic acid]
B (0.1 μM<B≦1 μM)		O=C(NC(Cc1ccccc1)C(=O)O)c1ccc(-c2ccc(OCc3ccc(Cl)cc3)cc2)cc1 (centres unmarked) [Example 8-32]
A (A≦0.1 μM)		O=C(NC(Cc1ccccc1)C(=O)O)c1ccc(-c2ccc(OCc3cccc(Cl)c3)cc2)cc1 (centres unmarked) [Example 8-22]
A (A≦0.1 μM)		O=C(NC(Cc1ccccc1)C(=O)O)c1ccc(-c2ccc(OCc3cccc([N+](=O)[O-])c3)cc2)cc1 (centres unmarked) [Example 8-28]
A (A≦0.1 μM)		O=C(NC(Cc1ccccc1)C(=O)O)c1ccc(-c2ccc(OCc3ccccc3Cl)cc2)cc1 (centres unmarked) [Example 8-17]
B (0.1 μM<B≦1 μM)		O=C(NC(Cc1ccccc1)C(=O)O)c1ccc(-c2ccc(OCc3c(F)cccc3F)cc2)cc1 (centres unmarked) [Example 8-12]
A (A≦0.1 μM)		Cc1ccccc1COc1ccc(-c2ccc(C(=O)NC(Cc3ccccc3)C(=O)O)cc2)cc1 (centres unmarked) [Example 8-24]
A (A≦0.1 μM)		O=C(NC(Cc1ccccc1)C(=O)O)c1ccc(-c2ccc(OCc3ccccc3F)cc2)cc1 (centres unmarked) [Example 8-3]
A (A≦0.1 μM)		O=C(NC(Cc1ccccc1)C(=O)O)c1ccc(-c2ccc(OCc3ccc(F)c(F)c3)cc2)cc1 (centres unmarked) [Example 8-6]
A (A≦0.1 μM)		Nc1cccc(COc2ccc(-c3ccc(C(=O)NC(Cc4ccccc4)C(=O)O)cc3)cc2)c1 (centres unmarked) [Example 8-39]
B (0.1 μM<B≦1 μM)		O=C(NC(Cc1ccccc1)C(=O)O)c1ccc(-c2ccc(OCc3ccc(Cl)c(Cl)c3)cc2)cc1 (centres unmarked) [Example 8-10]
C (1 μM<C)		O=C(NC(Cc1ccccc1)C(=O)O)c1ccc(-c2ccc(OCc3cccc(OC(F)(F)F)c3)cc2)cc1 (centres unmarked) [Example 8-30]
B (0.1 μM<B≦1 μM)		Cc1ccc(C)c(COc2ccc(-c3ccc(C(=O)NC(Cc4ccccc4)C(=O)O)cc3)cc2)c1 (centres unmarked) [Example 8-26]
A (A≦0.1 μM)		O=C(NC(Cc1ccccc1)C(=O)O)c1ccc(-c2ccc(OCc3cccc(Cl)c3Cl)cc2)cc1 (centres unmarked) [Example 8-11]
A (A≦0.1 μM)		COc1cccc(COc2ccc(-c3ccc(C(=O)NC(Cc4ccccc4)C(=O)O)cc3)cc2)c1 (centres unmarked) [Example 8-14]
A (A≦0.1 μM)		O=C(NC(Cc1ccccc1)C(=O)O)c1ccc(-c2ccc(OCc3c(Cl)cccc3Cl)cc2)cc1 (centres unmarked) [Example 8-7]
B (0.1 μM<B≦1 μM)		Cc1ccc(COc2ccc(-c3ccc(C(=O)NC(Cc4ccccc4)C(=O)O)cc3)cc2)cc1 (centres unmarked) [Example 8-19]
B (0.1 μM<B≦1 μM)		Cc1cc(C)cc(COc2ccc(-c3ccc(C(=O)NC(Cc4ccccc4)C(=O)O)cc3)cc2)c1 (centres unmarked) [Example 8-25]
B (0.1 μM<B≦1 μM)		COc1ccccc1COc1ccc(-c2ccc(C(=O)NC(Cc3ccccc3)C(=O)O)cc2)cc1 (centres unmarked) [Example 8-13]
A (A≦0.1 μM)		O=C(NC(Cc1ccccc1)C(=O)O)c1ccc(-c2ccc(OCc3ccc(F)cc3)cc2)cc1 (centres unmarked) [Example 8-5]
B (0.1 μM<B≦1 μM)		O=C(NC(Cc1ccccc1)C(=O)O)c1ccc(-c2ccc(OCc3cccc(C(F)(F)F)c3)cc2)cc1 (centres unmarked) [Example 8-20]
